Results on 26 molecules are retold here after US20150299120A1, “Spirohydantoin compounds and their use as selective androgen receptor modulators” (NOVARTIS AG, priority 2012, published 2015).

Where two headings read alike, the source gives them in different places. Bounds are passed on as bounds.

The assay concerns the target T1, androgen receptor (AR) (Homo sapiens, UniProt P10275).
T1 construct: transfecting C2C12 cells with a plasmid containing full-length AR; expressed in transfected cells; host or cells: mouse myoblastic C2C12 cells (ATCC CRL-1772), transiently transfected with AR-FL in pcDNA 3.1(+)
T1 sequence (P10275 1-920): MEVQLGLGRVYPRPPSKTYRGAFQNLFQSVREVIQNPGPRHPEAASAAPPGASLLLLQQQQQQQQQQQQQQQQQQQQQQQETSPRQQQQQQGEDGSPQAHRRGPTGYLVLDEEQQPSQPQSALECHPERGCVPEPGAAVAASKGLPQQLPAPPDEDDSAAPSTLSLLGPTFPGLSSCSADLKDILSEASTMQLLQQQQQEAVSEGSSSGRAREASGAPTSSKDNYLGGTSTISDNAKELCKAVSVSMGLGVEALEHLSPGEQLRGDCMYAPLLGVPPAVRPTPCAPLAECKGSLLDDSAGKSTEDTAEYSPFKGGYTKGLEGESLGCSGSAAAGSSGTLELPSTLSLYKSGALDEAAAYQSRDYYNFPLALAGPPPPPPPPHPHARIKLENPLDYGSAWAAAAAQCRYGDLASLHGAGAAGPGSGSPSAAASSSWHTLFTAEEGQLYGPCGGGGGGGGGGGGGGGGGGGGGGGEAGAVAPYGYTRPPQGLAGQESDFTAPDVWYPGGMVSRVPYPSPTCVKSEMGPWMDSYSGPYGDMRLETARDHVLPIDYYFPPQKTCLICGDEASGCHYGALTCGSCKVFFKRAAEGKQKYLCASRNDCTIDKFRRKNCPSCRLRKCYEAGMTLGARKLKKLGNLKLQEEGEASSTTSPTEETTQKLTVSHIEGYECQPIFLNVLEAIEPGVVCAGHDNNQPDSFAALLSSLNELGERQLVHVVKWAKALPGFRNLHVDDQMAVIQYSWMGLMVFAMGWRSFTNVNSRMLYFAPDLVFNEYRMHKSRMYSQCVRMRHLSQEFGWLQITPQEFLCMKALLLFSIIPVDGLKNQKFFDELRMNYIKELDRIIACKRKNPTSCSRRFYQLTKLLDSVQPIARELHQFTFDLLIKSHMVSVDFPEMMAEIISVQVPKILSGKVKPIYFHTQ
Put plainly: Test 1: androgen receptor transcriptional activation (2XIDR17-luciferase) assay in transfected C2C12 cells. The class given is cell-based. The following applies: for Emax: percentage activity relative to 1 μM DHT, read-out: Biological activity (C2C12 cell) Emax % (converted). The procedure: A suitable assay to determine the ability of a ligand to transcriptionally activate androgen receptor (AR) is carried out using mouse myoblastic C2C12 cells. The assay involves transfecting C2C12 cells with a plasmid containing full-length AR along with an AR response element linked to luciferase (2XIDR17). The luminescence read-out at the end of the assay is measured using Victor 3 and is a direct measure of the transcriptional activity. The assay has been validated using the reference compound, BMS-564929, for which EC50 values have been reported in a similar set-up.
C2C12 cells were obtained from ATCC (Cat #CRL-1772) and maintained in DMEM modified to contain 4 mM L-glutamine, 4.5 g/L glucose, 1 mM sodium pyruvate and 1.5 g/L sodium bicarbonate and 10% FBS.
AR-FL in pcDNA 3.1(+) and 2XIDR17 in pGL4.26 plasmids prepared using Genelute plasmid miniprep kit from Sigma Cat #PLED35 Steadyglow Luciferase assay system Promega Cat #E2550
• C2C12 cells were seeded in a 96-well plate in DMEM (Dulbecco's Modified Eagle Medium) without phenol red and containing 10% CS-FBS (Charcoal-stripped Fetal Bovine Serum) at 8000 cells/well. • The next day, cells were transfected with an equimolar ratio of (Androgen Receptor-Full length) AR-FL and 2XIDR17-Luciferase at a total plasmid concentration of 200 ng/well using Lipofectamine 2000 following manufacturer's protocol. • For the transfection, 83 ng of AR-FL and 117 ng of 2XIDR17-Luciferase were in 12.5 μl of OptiMEM—Mix A. 0.4 μl of Lipofectamine 2000 was added to 12.5 μl of OptiMEM and incubated for 5 min at room temperature—Mix B. The two mixes A and B were mixed and incubated at room temperature for an additional fifteen minutes. An additional 50 μl of OptiMEM was added, gently mixed and this mixture was added to the cells in the 96-well plate. The above quantities are requirements per well of a 96-well plate. Master mixes were made for the entire plate, with proportional quantity of reagents being used. • 5 h after transfection, compounds were added to the wells in DMEM without phenol red and containing 10% CS-FBS, maintaining a final DMSO concentration of 0.5%. A typical dose response curve starts at 10 μM and includes a 7-point, log dilution, done in triplicates. • After overnight incubation with the compounds, 100 ul of working solution of Steadyglow reagent was added to the wells. • The plates were placed in a shaker for 15 min at the end of which the lysate containing luciferase was transferred to a white flat-bottom plate and read under a luminescence setting in Victor. • Background subtracted counts (Luminescence from DMSO control wells is considered the background) are used to calculate percentage activity, expressed relative to activity with 1 μM (Dihydrotestosterone) DHT (at least two sets of triplicates for 1 μM DHT are included per plate).
The EC50 curves for the compounds for 8 compound concentrations were fitted by the respective function using non-linear least-squares regression in Graphpad Prism 4.0 (Graphpad Software, San Diego, Calif., USA).

[1] abbreviates: mouse myoblastic C2C12 cells transfected with full-length AR and 2XIDR17-luciferase, read-out: Biological activity (C2C12 cell) EC50.
Where [2] appears, read: C2C12 cells, read-out: EC50 value in test 1.

Consider `Cc1c(N2C(=O)N(C)C3(CCCC3O)C2=O)ccc(C#N)c1Cl` (stereo not shown) [1.0], for which the Emax (C2C12, C2C12 cells) was 80%.
Take `CCN1C(=O)N(c2ccc(C#N)c(Cl)c2C)C(=O)C12CCCC2O` (stereo not shown) [1.3]: the Emax (C2C12, C2C12 cells) is 79%.
Take `Cc1c(N2C(=O)N(C)[C@]3(CCC[C@@H]3F)C2=O)ccc(C#N)c1Cl` [1.4(iv), 2-chloro-4-((5R,6S)-6-fluoro-1-methyl-2,4-dioxo-1,3-diazaspiro[4.4]nonan-3-yl)-3-methylbenzonitrile]: the concentration giving a half-maximal response (EC50) under setting [1] was determined as 0.79 nM.
Turning to `Cc1c(N2C(=O)N(C)C3(CCCC3F)C2=O)ccc(C#N)c1Cl` (stereo not shown) [1.4], the Emax (C2C12, C2C12 cells) is 60%.
On the same count and under the same terms, to `Cc1c(N2C(=O)N(C)C3(C=CCC3)C2=O)ccc(C#N)c1Cl` (stereo not shown) [1.5] belongs 66%.
On the same count and under the same terms, to `Cc1c(N2C(=O)N(C)C3(CCCC3C)C2=O)ccc(C#N)c1Cl` (stereo not shown) [1.7] belongs 91%.
In the case of `Cc1c(N2C(=O)N(CCN3CCOCC3)C3(CCCC3)C2=O)ccc(C#N)c1Cl` [2-chloro-3-methyl-4-(1-(2-morpholinoethyl)-2,4-dioxo-1,3-diazaspiro[4.4]nonan-3-yl)benzonitrile], under setting [2], the EC50 was > 30000 nM.
On the same count and under the same terms, the result for `CCOCCN1C(=O)N(c2ccc(C#N)c(Cl)c2C)C(=O)C12CCCC2` [2-chloro-4-(1-(2-ethoxyethyl)-2,4-dioxo-1,3-diazaspiro[4.4]nonan-3-yl)-3-methylbenzonitrile] reads > 30000 nM.
With `Cc1c(N2C(=O)N(CCOCC(C)C)C3(CCCC3)C2=O)ccc(C#N)c1Cl` [2-chloro-4-(1-(2-isobutoxyethyl)-2,4-dioxo-1,3-diazaspiro[4.4]nonan-3-yl)-3-methylbenzonitrile], the EC50 under setting [2] is > 30000 nM.
The same measure, in the same setting: the result for `Cc1c(N2C(=O)N(CCOC(C)C)C3(CCCC3)C2=O)ccc(C#N)c1Cl` [2-chloro-4-(1-(2-isopropoxyethyl)-2,4-dioxo-1,3-diazaspiro[4.4]nonan-3-yl)-3-methylbenzonitrile] reads > 30000 nM; that for `Cc1c(N2C(=O)N(CCC3CCOCC3)C3(CCCC3)C2=O)ccc(C#N)c1Cl` [2-chloro-4-(2,4-dioxo-1-(2-(tetrahydro-2H-pyran-4-yl)ethyl)-1,3-diazaspiro[4.4]nonan-3-yl)-3-methylbenzonitrile], > 30000 nM.
For the molecule `Cc1c(N2C(=O)N(CC3CCOCC3)C3(CCCC3)C2=O)ccc(C#N)c1Cl` [2-chloro-4-(2,4-dioxo-1-((tetrahydro-2H-pyran-4-yl)methyl)-1,3-diazaspiro[4.4]nonan-3-yl)-3-methylbenzonitrile], the percent activity relative to 1 μM DHT at a single concentration at 0.1 µM (C2C12, C2C12 cells, compound at 100 nM, relative to 1 μM DHT, read-out: % Biological activity (C2C12 cell) 100 nM) is 5%. In addition, for the setting “C2C12, C2C12 cells, compound at 5 μM, relative to 1 μM DHT, read-out: % Biological activity (C2C12 cell) 5 μM”, the percent activity relative to 1 μM DHT at a single concentration at 5 µM was found to be 12%.
With `Cc1c(N2C(=O)N(C)C3(CCCC3)C2O)ccc(C#N)c1Cl` (stereo not shown) [2-chloro-4-(4-hydroxy-1-methyl-2-oxo-1,3-diazaspiro[4.4]nonan-3-yl)-3-methylbenzonitrile], the EC50 under setting [2] was > 30000 nM.
Still for that read-out and setting: the result for `COC1N(c2ccc(C#N)c(Cl)c2C)C(=O)N(C)C12CCCC2` (stereo not shown) [2-chloro-4-(4-methoxy-1-methyl-2-oxo-1,3-diazaspiro[4.4]nonan-3-yl)-3-methylbenzonitrile] reads > 30000 nM.
Consider `Cc1c(N2CC3(CCCC3F)N(C)C2=O)ccc(C#N)c1Cl` (stereo not shown) [2-chloro-4-(6-fluoro-1-methyl-2-oxo-1,3-diazaspiro[4.4]nonan-3-yl)-3-methylbenzonitrile], for which the EC50 under setting [2] was > 30000 nM.
With `Cc1c(N2CC3(CCCC3F)OC2=O)ccc(C#N)c1Cl` (stereo not shown) [2-chloro-4-(6-fluoro-2-oxo-1-oxa-3-azaspiro[4.4]nonan-3-yl)-3-methylbenzonitrile], the EC50 under setting [2] is > 30000 nM.
As to `Cc1c(N2CC3(CCCC3O)OC2=O)ccc(C#N)c1Cl` (stereo not shown) [2-chloro-4-(6-hydroxy-2-oxo-1-oxa-3-azaspiro[4.4]nonan-3-yl)-3-methylbenzonitrile], under setting [2], the EC50 is > 30000 nM.
As for `Cc1c(N2CC3(CCCC3O)N(C)C2=O)ccc(C#N)c1Cl` (stereo not shown) [2.0], the Emax (C2C12, C2C12 cells) is 76%. For the same molecule, the EC50 under setting [1] was determined as 2910 nM.
In the case of `Cc1c(N2C(=O)N(C)C3(CCC(F)C3)C2=O)ccc(C#N)c1Cl` (stereo not shown) [6.1], under “C2C12, C2C12 cells”, the Emax was 99%.
With `Cc1c(N2C(=O)N(C)C3(CCOC3)C2=O)ccc(C#N)c1Cl` (stereo not shown) [10.0], the Emax (C2C12, C2C12 cells) is 60%.
`COC1N(c2ccc(C#N)c(Cl)c2C)C(=O)OC12CCCC2O` (stereo not shown) [Example 4.1, 2-chloro-4-(6-hydroxy-4-methoxy-2-oxo-1-oxa-3-azaspiro[4.4]nonan-3-yl)-3-methylbenzonitrile]: under “C2C12, C2C12 cells”, the Emax is 40%. In addition, under setting [1], the EC50 was 2590 nM.
In the same order, the values of `Cc1c(N2C(=O)N(C)C3(CCC(O)C3)C2=O)ccc(C#N)c1Cl` (stereo not shown) [Example 6.0, 2-chloro-4-(7-hydroxy-1-methyl-2,4-dioxo-1,3-diazaspiro[4.4]nonan-3-yl)-3-methylbenzonitrile] are 70% and 53 nM.
For the molecule `Cc1c(N2C(=O)N(CCc3ccncc3)C3(CCCC3)C2=O)ccc(C#N)c1Cl` [Example 8.2, 2-chloro-4-(2,4-dioxo-1-(2-(pyridin-4-yl)ethyl)-1,3-diazaspiro[4.4]nonan-3-yl)-3-methylbenzonitrile], the Emax (C2C12, C2C12 cells) was 70%. Also, under setting [1], the EC50 is 203 nM.
In the same order, the values of `Cc1cnc(CN2C(=O)N(c3ccc(C#N)c(Cl)c3C)C(=O)C23CCCC3)o1` [Example 8.7, 2-chloro-3-methyl-4-(1-((5-methyloxazol-2-yl)methyl)-2,4-dioxo-1,3-diazaspiro[4.4]nonan-3-yl)benzonitrile] are 112% and 8.9 nM.
Turning to `Cc1c(N2C(=O)N(Cc3ncc(CO)o3)C3(CCCC3)C2=O)ccc(C#N)c1Cl` [Example 8.8, 2-chloro-4-(1-((5-(hydroxymethyl)oxazol-2-yl)methyl)-2,4-dioxo-1,3-diazaspiro[4.4]nonan-3-yl)-3-methylbenzonitrile], the “% Biological activity (C2C12 cell) 100 nM” value (C2C12 cells, compound at 100 nM, relative to 1 μM DHT) worked out at 26%. The “% Biological activity (C2C12 cell) 5 μM” value (C2C12 cells, compound at 5 μM, relative to 1 μM DHT) is given as 70%.
As for `Cc1c(N2C(=O)N(Cc3cnco3)C3(CCCC3)C2=O)ccc(C#N)c1Cl` [Example 8.9, 2-chloro-3-methyl-4-(1-(oxazol-5-ylmethyl)-2,4-dioxo-1,3-diazaspiro[4.4]nonan-3-yl)benzonitrile], the Emax (C2C12, C2C12 cells) is 87%. Moreover, the EC50 under setting [1] is 25 nM.

As usually defined, the Emax is the size of the effect at its maximum, as opposed to the concentration needed. As a reminder, the EC50 is the concentration needed to bring the measured effect to its halfway point.
